The source of these data is US20250092016A1, “COMPOUNDS AND COMPOSITIONS FOR THE TREATMENT OF CORONAVIRAL RELATED DISEASES” (priority 2021, published 2025).

Some results are limits rather than exact numbers.

A word on the IC50: it is the concentration needed to halve the response being measured.

The target in this experiment is SARS-CoV-2 main protease (M^pro) (Severe acute respiratory syndrome coronavirus 2, UniProt P0DTD1). Briefly: Rapid-Fire MS Biochemical Assay measuring Mpro activity (5 nM Mpro). The note with it: Table 1B, Mpro inhibition, 5 μM substrate peptide, 120 min, read-out: Rapid-Fire Assay IC50.
Take `N#C[C@@H]1CN(C2CN(CC(F)(F)F)C2)C(=O)N1c1cncc2ccccc12` (single isomer, unassigned) [Compound 133b]: the IC50 was 20 to 200 nM. As for `CC(=O)N1CC(N2C[C@H](C#N)N(c3cncc4ccccc34)C2=O)C1` (single isomer, unassigned) [Compound 134a], the IC50 lay in the range of 200 to 1000 nM. Under `CC(=O)N1CC(N2C[C@@H](C#N)N(c3cncc4ccccc34)C2=O)C1` (single isomer, unassigned) [Compound 134b] stands above 1000 nM; under `N#C[C@H]1CN(C2CN(C3CC3)C2)C(=O)N1c1cncc2ccccc12` (single isomer, unassigned) [Compound 136a], below 20 nM. Under `N#C[C@@H]1CN(C2CN(C3CC3)C2)C(=O)N1c1cncc2ccccc12` (single isomer, unassigned) [Compound 136b] stands above 1000 nM; under `N#C[C@H]1CN(C23CC(C(F)(F)F)(C2)C3)C(=O)N1c1cncc2ccccc12` (single isomer, unassigned) [Compound 137a], below 20 nM.

Regarding `N#C[C@@H]1CN(C23CC(C(F)(F)F)(C2)C3)C(=O)N1c1cncc2ccccc12` (single isomer, unassigned) [Compound 137b], the IC50 is above 1000 nM. With `N#C[C@H]1CN(C2CCC(F)(F)CC2)C(=O)N1c1cncc2ccccc12` (single isomer, unassigned) [Compound 138a], the IC50 was below 20 nM.

With `N#C[C@@H]1CN(C2CCC(F)(F)CC2)C(=O)N1c1cncc2ccccc12` (single isomer, unassigned) [Compound 138b], the IC50 was above 1000 nM. Regarding `N#C[C@H]1CN(C23CC(F)(C2)C3)C(=O)N1c1cncc2ccccc12` (single isomer, unassigned) [Compound 139a], the IC50 was below 20 nM.

For `N#C[C@@H]1CN(C23CC(F)(C2)C3)C(=O)N1c1cncc2ccccc12` (single isomer, unassigned) [Compound 139b], the IC50 was above 1000 nM. Under `CC(C)(C)CN1C[C@H](C#N)N(c2cncc3ccccc23)C1=O` (single isomer, unassigned) [Compound 140a] stands 20 to 200 nM; under `CC(C)(C)CN1C[C@@H](C#N)N(c2cncc3ccccc23)C1=O` (single isomer, unassigned) [Compound 140b], above 1000 nM. Regarding `N#C[C@H]1CN(C2CCC(F)(F)C2)C(=O)N1c1cncc2ccccc12` (single isomer, unassigned) [Compound 141a, (R)-1-((S)-3,3-difluorocyclopentyl)-3-(isoquinolin-4-yl)-2-oxoimidazolidine-4-carbonitrile or (R)-1-((R)-3,3-difluorocyclopentyl)-3-(isoquinolin-4-yl)-2-oxoimidazolidine-4-carbonitrile], the IC50 was in the range of 20 to 200 nM.

Turning to `N#C[C@@H]1CN([C@H]2CCC(F)(F)C2)C(=O)N1c1cncc2ccccc12` (single isomer, unassigned) [Compound 141b, (S)-1-((S)-3,3-difluorocyclopentyl)-3-(isoquinolin-4-yl)-2-oxoimidazolidine-4-carbonitrile or (S)-1-((R)-3,3-difluorocyclopentyl)-3-(isoquinolin-4-yl)-2-oxoimidazolidine-4-carbonitrile], the IC50 was above 1000 nM. Regarding `N#C[C@@H]1CN(C2CCC(F)(F)C2)C(=O)N1c1cncc2ccccc12` (single isomer, unassigned) [Compound 141c, (S)-1-((S)-3,3-difluorocyclopentyl)-3-(isoquinolin-4-yl)-2-oxoimidazolidine-4-carbonitrile or (S)-1-((R)-3,3-difluorocyclopentyl)-3-(isoquinolin-4-yl)-2-oxoimidazolidine-4-carbonitrile], the IC50 was above 1000 nM. Under `N#C[C@H]1CN([C@H]2CCC(F)(F)C2)C(=O)N1c1cncc2ccccc12` (single isomer, unassigned) [Compound 141d, (R)-1-((S)-3,3-difluorocyclopentyl)-3-(isoquinolin-4-yl)-2-oxoimidazolidine-4-carbonitrile or (R)-1-((R)-3,3-difluorocyclopentyl)-3-(isoquinolin-4-yl)-2-oxoimidazolidine-4-carbonitrile] stands 20 to 200 nM; under `N#CC1CN(C2CCCC(F)(F)C2)C(=O)N1c1cncc2ccccc12` (stereo not shown) [Compound 29, 1-(3,3-difluorocyclohexyl)-3-(isoquinolin-4-yl)-2-oxoimidazolidine-4-carbonitrile], 20 to 200 nM.

On to `CC(C)(O)c1ccc2cncc(N3C(=O)N(c4cccc(Cl)c4)CC3C#N)c2c1` (stereo not shown) [Compound 34, 1-(3-chlorophenyl)-3-(6-(2-hydroxypropan-2-yl)isoquinolin-4-yl)-2-oxoimidazolidine-4-carbonitrile], for which the IC50 is below 20 nM. Turning to `N#CC1CN(c2cccc(Cl)c2)C(=O)N1c1cncc2ccc(C(N)=O)cc12` (stereo not shown) [Compound 35, 4-(3-(3-chlorophenyl)-5-cyano-2-oxoimidazolidin-1-yl)isoquinoline-6-carboxamide], the IC50 is below 20 nM. Turning to `COCCNC(=O)c1ccc2cncc(N3C(=O)N(c4cccc(Cl)c4)CC3C#N)c2c1` (stereo not shown) [Compound 36, 4-(3-(3-chlorophenyl)-5-cyano-2-oxoimidazolidin-1-yl)-N-(2-methoxyethyl)isoquinoline-6-carboxamide], the IC50 was 20 to 200 nM. Turning to `N#C[C@H]1CN([C@H]2C[C@H](C(F)(F)F)C2)C(=O)N1c1cncc2ccccc12` [Compound 45a, (R)-3-(isoquinolin-4-yl)-2-oxo-1-((1 r,3R)-3-(trifluoromethyl)cyclobutyl)imidazolidine-4-carbonitrile], the IC50 is below 20 nM. With `N#C[C@H]1CN([C@H]2C[C@@H](C(F)(F)F)C2)C(=O)N1c1cncc2ccccc12` [Compound 45b, (R)-3-(isoquinolin-4-yl)-2-oxo-1-((1s,3S)-3-(trifluoromethyl)cyclobutyl)imidazolidine-4-carbonitrile], the IC50 lay within 200 to 1000 nM. Take `C[C@H]1C[C@H](N2C[C@H](C#N)N(c3cncc4ccccc34)C2=O)C1` [Compound 120b, (R)-3-(isoquinolin-4-yl)-1-((1 r,3R)-3-methylcyclobutyl)-2-oxoimidazolidine-4-carbonitrile]: the IC50 fell in the range of 20 to 200 nM. Take `N#C[C@@H]1CN([C@H]2CC[C@H](F)CC2)C(=O)N1c1cncc2ccccc12` [Compound 121c, (S)-1-((1 r,4S)-4-fluorocyclohexyl)-3-(isoquinolin-4-yl)-2-oxoimidazolidine-4-carbonitrile]: the IC50 is above 1000 nM. As to `CC(C)[C@H]1C[C@@H](N2C[C@H](C#N)N(c3cncc4ccccc34)C2=O)C1` [Compound 123a, (R)-1-((1s,3S)-3-isopropylcyclobutyl)-3-(isoquinolin-4-yl)-2-oxoimidazolidine-4-carbonitrile], the IC50 was below 20 nM.

Turning to `CC(C)[C@H]1C[C@H](N2C[C@H](C#N)N(c3cncc4ccccc34)C2=O)C1` [Compound 123b, (R)-1-((1r,3R)-3-isopropylcyclobutyl)-3-(isoquinolin-4-yl)-2-oxoimidazolidine-4-carbonitrile], the IC50 was below 20 nM. Regarding `CC(C)[C@H]1C[C@@H](N2C[C@@H](C#N)N(c3cncc4ccccc34)C2=O)C1` [Compound 123c, (S)-1-((1s,3R)-3-isopropylcyclobutyl)-3-(isoquinolin-4-yl)-2-oxoimidazolidine-4-carbonitrile], the IC50 was above 1000 nM. `CC(C)[C@H]1C[C@H](N2C[C@@H](C#N)N(c3cncc4ccccc34)C2=O)C1` [Compound 123d, (S)-1-((1r,3S)-3-isopropylcyclobutyl)-3-(isoquinolin-4-yl)-2-oxoimidazolidine-4-carbonitrile]: the IC50 is above 1000 nM. Take `N#C[C@H]1CN([C@H]2C[C@@H](C3CC3)C2)C(=O)N1c1cncc2ccccc12` [Compound 124a, (R)-1-((1s,3S)-3-cyclopropylcyclobutyl)-3-(isoquinolin-4-yl)-2-oxoimidazolidine-4-carbonitrile]: the IC50 was below 20 nM. Turning to `N#C[C@H]1CN([C@H]2C[C@H](C3CC3)C2)C(=O)N1c1cncc2ccccc12` [Compound 124b, (R)-1-((1r,3R)-3-cyclopropylcyclobutyl)-3-(isoquinolin-4-yl)-2-oxoimidazolidine-4-carbonitrile], the IC50 is below 20 nM.

For `N#C[C@@H]1CN([C@H]2C[C@H](C3CC3)C2)C(=O)N1c1cncc2ccccc12` [Compound 124c, (S)-1-((1r,3S)-3-cyclopropylcyclobutyl)-3-(isoquinolin-4-yl)-2-oxoimidazolidine-4-carbonitrile], the IC50 was above 1000 nM. In the case of `N#C[C@@H]1CN([C@H]2C[C@@H](C3CC3)C2)C(=O)N1c1cncc2ccccc12` [Compound 124d, (S)-1-((1s,3R)-3-cyclopropylcyclobutyl)-3-(isoquinolin-4-yl)-2-oxoimidazolidine-4-carbonitrile], the IC50 was above 1000 nM.

`N#CC1CN([C@H]2CC[C@H](C(F)(F)F)CC2)C(=O)N1c1cncc2ccccc12` (stereo partly shown) [Compound 128, 3-(isoquinolin-4-yl)-2-oxo-1-((1 r,4r)-4-(trifluoromethyl)cyclohexyl)imidazolidine-4-carbonitrile]: the IC50 was below 20 nM. As to `N#C[C@H]1CN([C@H]2CC[C@H](C(F)(F)F)CC2)C(=O)N1c1cncc2ccccc12` [Compound 128a, (R)-3-(isoquinolin-4-yl)-2-oxo-1-((1 r,4R)-4-(trifluoromethyl)cyclohexyl)imidazolidine-4-carbonitrile], the half-maximal inhibitory concentration (IC50) is below 20 nM. Under `N#C[C@@H]1CN([C@H]2CC[C@H](C(F)(F)F)CC2)C(=O)N1c1cncc2ccccc12` [Compound 128b, (S)-3-(isoquinolin-4-yl)-2-oxo-1-((1 r,4R)-4-(trifluoromethyl)cyclohexyl)imidazolidine-4-carbonitrile] stands above 1000 nM.

`CN1CC(N2CC(C#N)N(c3cncc4ccccc34)C2=O)C1` (stereo not shown) [Compound 132, 3-(isoquinolin-4-yl)-1-(1-methylazetidin-3-yl)-2-oxoimidazolidine-4-carbonitrile]: the IC50 is above 1000 nM.
